ChEMBL document CHEMBL1144215, “N-Propylnoraporphin-11-O-yl carboxylic esters as potent dopamine D(2) and serotonin 5-HT(1A) receptor dual ligands” (Bioorg Med Chem, 2008)

Tests used:
[1] = target: 5-hydroxytryptamine receptor 2A (Homo sapiens, UniProt P28223); test: Displacement of [3H]Ketanserin from human 5HT2A receptor expressed in HEK293 cells
D(2) dopamine receptor [2] = target: T1, D(2) dopamine receptor (Homo sapiens, UniProt P14416); test: Displacement of [3H]Spiperone from human dopamine D2 receptor expressed in HEK293 cells
T1 sequence (P14416 whole entry): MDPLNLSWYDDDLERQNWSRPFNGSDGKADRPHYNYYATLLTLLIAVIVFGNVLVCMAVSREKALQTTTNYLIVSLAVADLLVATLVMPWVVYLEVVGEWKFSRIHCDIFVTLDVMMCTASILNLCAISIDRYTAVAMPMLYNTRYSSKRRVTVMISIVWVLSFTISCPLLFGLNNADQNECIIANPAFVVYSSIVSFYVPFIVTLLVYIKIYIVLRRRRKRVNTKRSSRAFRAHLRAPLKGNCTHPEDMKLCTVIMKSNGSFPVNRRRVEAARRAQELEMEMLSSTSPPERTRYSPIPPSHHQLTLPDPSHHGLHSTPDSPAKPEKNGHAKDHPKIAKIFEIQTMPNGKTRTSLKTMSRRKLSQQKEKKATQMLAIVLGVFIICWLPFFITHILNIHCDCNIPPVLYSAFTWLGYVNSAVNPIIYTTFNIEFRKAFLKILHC

Dopamine D1 receptor = test: Displacement of [3H]SCH23390 from rat dopamine D1 receptor expressed in HEK293 cells
D(2) dopamine receptor [3] = target: T1, D(2) dopamine receptor; test: Displacement of […] from human dopamine D2 receptor expressed in HEK293 cells; format: cell-based

5-hydroxytryptamine receptor 2A, sequence (P28223 whole entry): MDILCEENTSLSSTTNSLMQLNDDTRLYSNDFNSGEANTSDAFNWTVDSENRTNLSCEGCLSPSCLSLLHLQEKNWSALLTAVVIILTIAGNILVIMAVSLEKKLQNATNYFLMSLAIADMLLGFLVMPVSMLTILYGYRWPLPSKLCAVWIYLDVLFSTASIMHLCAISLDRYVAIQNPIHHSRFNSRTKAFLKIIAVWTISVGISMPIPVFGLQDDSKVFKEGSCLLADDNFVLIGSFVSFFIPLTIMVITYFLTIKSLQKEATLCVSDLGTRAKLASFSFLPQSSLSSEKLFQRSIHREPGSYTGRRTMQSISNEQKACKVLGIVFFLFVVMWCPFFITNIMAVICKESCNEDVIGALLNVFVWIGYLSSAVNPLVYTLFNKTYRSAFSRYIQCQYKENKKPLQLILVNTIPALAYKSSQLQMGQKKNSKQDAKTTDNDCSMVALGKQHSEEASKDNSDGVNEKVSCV

SMILES	Ki [1]	Ki (D(2) dopamine receptor [2])	Ki (Dopamine D1 receptor)	Ki (D(2) dopamine receptor [3])
CCCN1CCc2cccc3c2[C@H]1Cc1cccc(OC(C)=O)c1-3	72 nM	–	–	–
CCCN1CCc2cccc3c2[C@H]1Cc1cccc(O)c1-3	114 nM	–	–	–
CCCCC(=O)Oc1cccc2c1-c1cccc3c1[C@@H](C2)N(CCC)CC3	92 nM	> 10000 nM	–	–
CCCN1CCc2cccc3c2[C@H]1Cc1cccc(OC(=O)CNC(=O)OCc2ccccc2)c1-3	> 10000 nM	> 10000 nM	> 10000 nM	–
CCCC(=O)Oc1cccc2c1-c1cccc3c1[C@@H](C2)N(CCC)CC3	56 nM	> 10000 nM	> 10000 nM	–
CCCN1CCc2cccc3c2[C@H]1Cc1cccc(OC(=O)CCCC(=O)Oc2cccc4c2-c2cccc5c2[C@@H](C4)N(CCC)CC5)c1-3	–	–	–	> 10000 nM
CCCN1CCc2cccc3c2[C@H]1Cc1cccc(OC(=O)CC)c1-3	109 nM	–	–	–
CCCCCC(=O)Oc1cccc2c1-c1cccc3c1[C@@H](C2)N(CCC)CC3	109 nM	> 10000 nM	> 10000 nM	–
CCCCCCC(=O)Oc1cccc2c1-c1cccc3c1[C@@H](C2)N(CCC)CC3	95 nM	–	–	–
